From patent US20050124647A1, “Tricyclic derivatives of indole with antiangiogenic activity” (Sigma-Tau Industrie Farmaceutiche Riunite S.p.A., priority 2000, published 2005)
pIC50: −log10 of the molar value. Read-outs that look alike come from different tables or passages of the source.

Assays:
BMEC [1] = assay: Cytotoxicity on endothelial cells (BMEC); format: cell-based, bovine
LoVo/DX = assay: Antiproliferative activity vs resistant cell LoVo/DX; format: cell-based; conditions: Homo sapiens, resistant cell (doxorubicin-resistant, P-glycoprotein overexpressing), read-out: IC50 +/− SD, LoVo/DX
Protocol: (§1) The test used was the sulforodamine B test used for screening anticancer products at the National Cancer Institute (Skehan, 1990). The molecules at scalar concentrations over a range from 500 μM to 0.97 μM, were incubated in parallel with different human cell lines for 24 hours. After removing the products, cell survival was investigated after another 48 hours with the NCI test. The antiproliferative capacity of the compounds was quantified in terms of IC50±SD (concentration of the molecule that inhibits 50% of cell survival) processed using a curve fitting program (De Lean et al., 1978).
(§2) The cytotoxicity of the molecules on tumour lines resistant to chemosensitising activity was assessed on various tumour cell lines overexpressing P-glycoprotein and resistant to doxorubicin (100-fold) and cross-resistant to daunorubicin, actinomycin D, mitoxantrone, vincristine, vinblastine, taxol, colchicine, and etoposide. The cytotoxicity of the products was assessed using the same test adopted for the sensitive tumour cells.

MCF-7/DX = assay: Antiproliferative activity vs resistant cell MCF-7/DX; format: cell-based; conditions: Homo sapiens, MCF7/DX; resistant cell (doxorubicin-resistant, P-glycoprotein overexpressing); read-out: IC50 +/− SD, MCF-7/DX
Protocol: as §1, §2

BMEC [2] = assay: Chemotactic assay with the Boyden chamber on BMEC; format: cell-based, bovine
Protocol: For the antiangiogenic activity the chemotactic assay with the Boyden chamber was performed (Werner F., Goodwin R. H. and Leonard E. J., Journal of Immunological Methods 1980; 33, 239-247), using both bovine aortal endothelial cell (BAEC) cultures and bovine medullary endothelial cell (BMEC) cultures. The assays were performed at IC0 (maximum non-cytotoxic concentration) and the results expressed as % inhibition of migration across a porous filter in response to a chemotactic stimulus (1% bovine serum in DMEM culture medium). This finding was obtained by direct cell count under the optical microscope, and the percentage migration inhibition was calculated according to the formula (T−C/C)×100, where T=mean number of cells migrating in the sample and C=mean number of cells migrating in the control. The control consisted of cells which migrated towards the serum, not treated with the study molecules, and included in every chemotaxis experiment. The data refer to the readings of 5 microscopic fields/well in 4 independent chemotaxis wells per sample.

Row | pIC50 (LoVo/DX) | pIC50 (MCF-7/DX) | Structure (SMILES) | IC0 (maximum non-cytotoxic concentration) (BMEC [1]) | activity on chemotaxis of endothelial cells (in words) (BMEC [2]) | activity on chemotaxis of endothelial cells (in words) (BMEC [2]; listed as ST 1381)
1 | 4.62 | 4.17 | c1ccc2c(C3CCCCc4[nH]c5ccccc5c43)c[nH]c2c1 (racemic) [ST1621, 5-(indol-3-yl)-indo(2,3a]-cycloheptan.] | 0.1 µM |  | 
2 | 4.58 | 4.57 | CC1(C)OCC(C2c3c([nH]c4ccccc34)C(c3c[nH]c4ccccc34)C3OC(C)(C)OC32)O1 (racemic) [ST1372, 1-(indol-3-yl)-2,3-O-isopropylidene-4-(2,3-O-isopropylidene-ethyl)-tetra-hydrocarbazole] |  |  | 
3 |  | 4.23 | c1[nH]c2cc3c(cc2c1C1CCCc2c1[nH]c1cc4c(cc21)OCO4)OCO3 (racemic) [ST1751, 1-(5′,6′-methylendioxy-1H-indol-3-yl)-6,7-methylendioxy-tetrahydro-1H-carbazole] |  |  | 
4 | 4.19 | 4.15 | c1ccc(COc2ccc3[nH]cc(C4CCCCc5[nH]c6ccc(OCc7ccccc7)cc6c54)c3c2)cc1 (racemic) [ST1778, 5-(5″-benzyloxy-indol-3-yl)-5′-benzyloxy-indo[2,3a]-cycloheptan.] | 25 µM |  | 
5 | 4.60 | 4.55 | c1ccc2c(C3CCCCc4c3[nH]c3ccccc43)c[nH]c2c1 (racemic) [ST1381, 1-(indol-3-yl)-indo[2,3a]-cycloheptan.] | 30 µM | active | better anti-chemiotactic compound
6 | 4.77 | 4.61 | c1ccc(COc2ccc3[nH]cc(C4CCCCc5c4[nH]c4ccc(OCc6ccccc6)cc54)c3c2)cc1 (racemic) [ST1765, 1-(5″-benzyloxy-indol-3-yl)-5′-benzyloxy-indo[2,3a]-cycloheptan] |  |  | 
7 |  |  | c1[nH]c2cc3c(cc2c1C1CCCCc2c1[nH]c1cc4c(cc21)OCO4)OCO3 (racemic) [ST1749, 1-(5″,6″-methylendioxy-indol-3-yl)-5′,6′-methylendioxy-indo[2,3-a]-cycloeptane] | 100 µM |  | 
8 |  | 4.41 | Oc1ccc2[nH]cc(C3CCCCc4c3[nH]c3ccc(O)cc43)c2c1 (racemic) [ST1783, 1-(5″-hydroxy-1H-indol-3-yl)-5′-hydroxy-indo[2,3a]-cycloheptan] | 10 µM |  | 
9 |  |  | c1ccc2c(C3CCCc4[nH]c5ccccc5c43)c[nH]c2c1 (racemic) [ST1729, 4-(1H-indol-3-yl)-tetrahydro-1H-carbazole] | 25 µM |  | 
